In US20040234586A1, “Compositions and methods for enhancing nucleic acid transfer into cells” (priority 2001, published 2004):

System: Rat1 fibroblast cells
Test: Transfection efficiency with pCMV-LacZ DNA, β-galactosidase activity of cell lysate (ONPG assay)
Format: cell-based, rat
Details: for transfection efficiency when combined to PEI as compared to PEI alone / transfection efficiency alone or in combination with PEI, compared with PEI alone: PEI N/P=10; for transfection efficiency when combined to PEI as compared to PEI alone: 0.25 to 7.5 μl lipid per ug DNA; for transfection efficiency alone or in combination with PEI, compared with PEI alone: lipid 2 mg/ml
Protocol: Transfection complexes were prepared as described by Boussif et al. (Boussif et al., 1995).
Lipid was diluted in 100 μl of growth media without serum and antibiotics. The solutions were immediately homogenized and left at room temperature for 5-10 min. […] The combined material was vortexed and incubated at room temperature for 20 min before addition to the cells.
Rat1 fibroblast cells were maintained in modified Eagle medium (MEM) (Life Technologies) and VSMC cells were maintained in Dulbecco's modified Eagle medium (DMEM) (Life Technologies). Both cell lines were cultured in media containing 10% heat inactivated calf serum (Life Technologies), 1% penicillin-streptomycin, and L-glutamine in 10 cm tissue culture flasks at 37° C. in a humidified 5% CO2 atmosphere. Cells were grown to 80% confluency, detached with trypsin-EDTA and replated in 2 new flasks 18-24 h before transfection. Two to three hours before transfections, cells were again detached, and seeded at a density of 5×10^4 cells per well in 24-multiwell tissue culture plates.
At the time of transfection, cells were supplemented with 200-400 μl of fresh complete media containing 10% calf serum and antibiotics unless otherwise specified. Transfection solution was added to each well and the plates were incubated at 37° C. in a humidified atmosphere containing 5% CO2. After 6 h of transfection, the transfecting solution was removed, cells were washed once with appropriate cell culture medium and then covered with 1 ml of the same medium. Cells were maintained for an additional 36-48 h.
Following transfections with pCMV-LacZ DNA (36-48 h later), cells were washed twice with ice-cold 0.1 M phosphate buffered saline (PBS) and lysed with 250 μl lysis buffer (10 mM Tris-HCl pH 7.5, 1 mM EDTA, 100 mM NaCl, 5 mM MgCl2 and 1% Nonidet P40™ (Boehringer Mannheim)). Lysates were centrifuged 15 000×g at 4° C. for 5 min. The supernatant was collected and its protein concentration was determined using the BCA protein assay kit (PIERCE) using the microwell protocol according to the manufacturer's specifications. β-galactosidase assay was performed as described by Eustice et al. (Eustice et al., 1991) Briefly, β-galactosidase activity was measured in 240 μl assay mixture containing 80 mM sodium phosphate buffer, pH 7.3, 102 mM 2-mercaptoethanol, 9.0 mM MgCl2 and 8.0 mM ONPG (o-nitrophenyl-β-D-galactopyranoside, SIGMA). Samples, (1-40 μl) of each lysate were assayed in the reaction mixture at 37° C. for 30 min in 96-well plates. Absorbance was measured at 405 nm. E. coli β-galactosidase (Roche) was used to generate a standard curve.

Compound | transfection efficiency when combined to PEI as compared to PEI alone (1 μg DNA) | transfection efficiency alone or in combination with PEI, compared with PEI alone (1 μg DNA) | also measured
CCCCCCCC/C=C\CCCCCCCC(=O)OC[C@H](COP(=O)([O-])OCC[N+](C)(C)C)OC(=O)CCCCCCC/C=C\CCCCCCCC [DOPC, 1,2-Dioleoly-sn-Glycero-3-Phosphocholine] | enhance transfection efficiency |  | 
L-α-phosphatidylcholine |  | did not display, alone or in combination with PEI, transfection efficiencies that were better or even equal to that obtained with PEI alone | 
CCCCCCCC/C=C\CCCCCCCC(=O)OC[C@@H](COP(=O)(OCC)OCC[N+](C)(C)C)OC(=O)CCCCCCC/C=C\CCCCCCCC (stereo partly drawn) [1,2-dioleoyl-sn-glycero-3-ethylphosphocholine] |  | did not display, alone or in combination with PEI, transfection efficiencies that were better or even equal to that obtained with PEI alone | 
CCCCCCCC/C=C\CCCCCCCC(=O)OCC(CN(C)C)OC(=O)CCCCCCC/C=C\CCCCCCCC (stereo not drawn) [1,2-dioleoyl-3-dimethylammonium-propane] |  | did not display, alone or in combination with PEI, transfection efficiencies that were better or even equal to that obtained with PEI alone | 
CC(C)CCCC(C)CCCC(C)CCCC(C)CC(=O)OC[C@H](COP(=O)(O)OCCN)OC(=O)CC(C)CCCC(C)CCCC(C)CCCC(C)C (stereo partly drawn) [DPPE, 1,2-Diphytanoyl-sn-Glycero-3-Phosphoethanolamine] | enhance transfection efficiency |  | 
CCCCCCCC/C=C\CCCCCCCC(=O)OC[C@H](COP(=O)(O)OCCN)OC(=O)CCCCCCC/C=C\CCCCCCCC [DOPE, 1,2-Dioleoyl-sn-Glycero-3-Phosphoethanolamine] | enhance transfection efficiency |  | β-galactosidase activity when combined to DNA alone (0.25 to 7.5 μl per ug DNA, without PEI): no β-galactosidase activity; increase of transfection efficiency over PEI alone (combined with PEI (N/P=10), 1 μg DNA): ≤ 26 fold
CCCCCCCC/C=C\CCCCCCCC(=O)OCC(C[N+](C)(C)C)OC(=O)CCCCCCC/C=C\CCCCCCCC (stereo not drawn) [1,2-dioleoyl-3-trimethylammonium-propane] |  | did not display, alone or in combination with PEI, transfection efficiencies that were better or even equal to that obtained with PEI alone | 
